Source: BindingDB's records for doi:10.1021/jm00062a011 (Smithkline Beecham Pharmaceuticals, 1993)
Where a name gives a salt, the structure may show the parent alone.

These compounds were tested against cGMP-specific 3',5'-cyclic phosphodiesterase PDE5 (Sus scrofa) (assay: In vitro inhibition of PDE-V isolated from porcine pulmonary artery.).

Row | SMILES | IC50 [µM]
1 | c1ccc(COc2ccccc2-c2nc3ncccc3[nH]2)cc1 [2-(2-Benzyloxy-phenyl)-3H-imidazo[4,5-b]pyridine] | 4
2 | CCCCOc1ccccc1-c1nc2ncccc2[nH]1 [2-(2-Butoxy-phenyl)-3H-imidazo[4,5-b]pyridine] | 1
3 | c1ccc(-c2nc3ncccc3[nH]2)c(OC2CCCC2)c1 [2-(2-Cyclopentyloxy-phenyl)-3H-imidazo[4,5-b]pyridine] | 15
4 | c1ccc(-c2nc3ncccc3[nH]2)c(OCC2CC2)c1 [2-(2-Cyclopropylmethoxy-phenyl)-3H-imidazo[4,5-b]pyridine] | 6
5 | CCOc1ccccc1-c1nc2ncccc2[nH]1 [2-(2-Ethoxy-phenyl)-3H-imidazo[4,5-b]pyridine] | 18
6 | CCCCCCOc1ccccc1-c1nc2ncccc2[nH]1 [2-(2-Hexyloxy-phenyl)-3H-imidazo[4,5-b]pyridine] | 4
7 | COc1ccccc1-c1nc2ccncc2[nH]1 [2-(2-Methoxy-phenyl)-3H-imidazo[4,5-c]pyridine; hydrochloride] | 42
8 | CCCCCOc1ccccc1-c1nc2ncccc2[nH]1 [2-(2-Pentyloxy-phenyl)-3H-imidazo[4,5-b]pyridine] | 1
9 | CCCCCOc1ccccc1-c1nc2ccncc2[nH]1 [2-(2-Pentyloxy-phenyl)-3H-imidazo[4,5-c]pyridine; hydrochloride] | 1
10 | CCCOc1ccccc1-c1cn2cccnc2n1 [2-(2-Propoxy-phenyl)-imidazo[1,2-a]pyrimidine] | 33
11 | CCCSc1ccccc1-c1nc2ncccc2[nH]1 [2-(2-Propylsulfanyl-phenyl)-3H-imidazo[4,5-b]pyridine] | 24
12 | Oc1ccccc1-c1nc2ncccc2[nH]1 [2-(3H-Imidazo[4,5-b]pyridin-2-yl)-phenol] | 37
13 | COc1cc([S+](C)[O-])ccc1-c1nc2cnccc2[nH]1 (stereo unspecified) [2-(4-Methanesulfinyl-2-methoxy-phenyl)-1H-imidazo[4,5-c]pyridine(isomazole)] | 58
14 | ClCCCOc1ccccc1-c1nc2ncccc2[nH]1 [2-[2-(3-Chloro-propoxy)-phenyl]-3H-imidazo[4,5-b]pyridine] | 2
15 | OCCCOc1ccccc1-c1nc2ncccc2[nH]1 [3-[2-(3H-Imidazo[4,5-b]pyridin-2-yl)-phenoxy]-propan-1-ol] | 24
16 | CCCNc1ccccc1-c1nc2ncccc2[nH]1 [[2-(3H-Imidazo[4,5-b]pyridin-2-yl)-phenyl]-propyl-amine] | 26
